Measurements: ChEMBL document CHEMBL2029344, “A new class of prolylcarboxypeptidase inhibitors, part 2: the aminocyclopentanes” (Bioorg Med Chem Lett, 2012)
pIC50, pKi: −log10 of the molar value.

Key:
[1] = Stability in mouse liver microsomes after 30 mins by LC/MS analysis; type: ADME, Microsome; conditions: read-out: Stability
[2] = Percentage unbound in 10% human plasma; type: ADME, cell-free
[3] = target: T1, Lysosomal Pro-X carboxypeptidase (Mus musculus, UniProt Q7TMR0); experiment: Inhibition of mouse PrCP
T1 sequence (Q7TMR0 whole entry): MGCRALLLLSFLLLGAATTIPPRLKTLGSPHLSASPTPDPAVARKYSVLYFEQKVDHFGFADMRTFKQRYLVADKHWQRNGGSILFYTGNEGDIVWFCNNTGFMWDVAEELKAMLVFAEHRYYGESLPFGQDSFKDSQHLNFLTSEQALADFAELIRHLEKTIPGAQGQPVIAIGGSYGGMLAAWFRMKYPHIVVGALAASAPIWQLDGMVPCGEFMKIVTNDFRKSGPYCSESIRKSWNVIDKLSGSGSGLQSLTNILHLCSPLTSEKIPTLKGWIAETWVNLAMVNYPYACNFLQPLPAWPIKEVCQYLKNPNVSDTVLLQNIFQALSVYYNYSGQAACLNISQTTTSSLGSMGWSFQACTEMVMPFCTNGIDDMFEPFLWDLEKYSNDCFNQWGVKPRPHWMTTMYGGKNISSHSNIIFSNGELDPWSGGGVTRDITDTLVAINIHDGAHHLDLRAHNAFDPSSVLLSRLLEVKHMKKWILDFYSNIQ

[4] = Stability in human liver microsomes after 30 mins by LC/MS analysis; type: ADME, Microsome; conditions: read-out: Stability
Mus musculus [5] = experiment: Ex-vivo inhibition of po dosed mouse PrCP by FRET analysis in absence of plasma; type: functional, organism-based
Mus musculus [6] = experiment: Ex-vivo inhibition of po dosed mouse PrCP by FRET analysis in presence of heat inactivated 25% plasma; type: functional, organism-based
[7] = Percentage unbound in 10% mouse plasma; type: ADME, cell-free
Mus musculus [8] = experiment: Ex-vivo inhibition of po dosed mouse PrCP by FRET analysis in presence of heat inactivated 100% plasma; type: functional, organism-based
Mus musculus [9] = experiment: Ex-vivo inhibition of PrCP in heat inactivated 100% plasma of C57 mouse assessed as target engagement calculated as [cmpd]plasma/([cmpd]plasma + Ki (heat inactivated plasma))x100 at 10 mg/kg, po after 20 hrs by FRET analysis; type: functional; design: scale not given: the % may be the effect or the level left
[10] = Ratio of drug uptake in brain to plasma of C57 mouse at 10 mg/kg, po after 20 hrs by LC/MS analysis; type: ADME, organism-based; design: dose 10 mg/kg, route oral; conditions: read-out: BPR
Mus musculus [11] = experiment: Toxicity in po dosed C57 mouse; type: organism-based; conditions: in vivo
Mus musculus [12] = experiment: Ex-vivo inhibition of PrCP in heat inactivated 100% plasma of C57 mouse assessed as target engagement at 10 mg/kg, po after 20 hrs by FRET analysis; type: functional; design: scale not given: the % may be the effect or the level left
[13] = Drug uptake in C57 mouse plasma at 10 mg/kg, po after 20 hrs by LC/MS analysis; type: ADME, organism-based; design: dose 10 mg/kg, route oral
[14] = Apparent permeability across pig LLC-PK1 cells at 1 uM; type: ADME, cell-based, Sus scrofa
[15] = Drug uptake in C57 mouse brain at 10 mg/kg, po after 20 hrs by LC/MS analysis; type: ADME, organism-based; design: dose 10 mg/kg, route oral; conditions: read-out: Drug uptake
Mus musculus [16] = experiment: Ex-vivo inhibition of PrCP in heat inactivated 100% plasma of po dosed C57 mouse assessed as target engagement after 20 hrs by FRET analysis; type: functional; design: scale not given: the % may be the effect or the level left
Mus musculus [17] = experiment: Dose normalized AUC in mouse at 1 mg/kg, iv and 30 mg/kg, po; type: ADME, organism-based; conditions: in vivo
[18] = Oral bioavailability in mouse at 30 mg/kg; type: ADME, organism-based; conditions: in vivo
[19] = Clearance in mouse at 1 mg/kg, iv and 30 mg/kg, po; type: ADME, organism-based; conditions: in vivo
[20] = Volume of distribution in mouse at 1 mg/kg, iv and 30 mg/kg, po; type: ADME, organism-based; conditions: in vivo
Mus musculus [21] = experiment: Ex-vivo inhibition of PrCP in heat inactivated 100% plasma of C57 mouse assessed as target engagement calculated as [cmpd]plasma/([cmpd]plasma + Ki (heat inactivated plasma))x100 at 30 mg/kg, po after 20 hrs by FRET analysis; type: functional; design: scale not given: the % may be the effect or the level left
[22] = Drug uptake in C57 mouse brain at 3 mg/kg, po after 20 hrs by LC/MS analysis; type: ADME, organism-based; design: dose 3 mg/kg, route oral; conditions: read-out: Drug uptake
[23] = Ratio of drug uptake in brain to plasma of C57 mouse at 30 mg/kg, po after 20 hrs by LC/MS analysis; type: ADME, organism-based; design: dose 30 mg/kg, route oral; conditions: read-out: BPR
[24] = Ratio of drug uptake in brain to plasma of C57 mouse at 3 mg/kg, po after 20 hrs by LC/MS analysis; type: ADME, organism-based; design: dose 3 mg/kg, route oral; conditions: read-out: BPR
[25] = Drug uptake in C57 mouse plasma at 30 mg/kg, po after 20 hrs by LC/MS analysis; type: ADME, organism-based; design: dose 30 mg/kg, route oral
[26] = Drug uptake in C57 mouse plasma at 3 mg/kg, po after 20 hrs by LC/MS analysis; type: ADME, organism-based; design: dose 3 mg/kg, route oral
[27] = Drug uptake in C57 mouse brain at 30 mg/kg, po after 20 hrs by LC/MS analysis; type: ADME, organism-based; design: dose 30 mg/kg, route oral; conditions: read-out: Drug uptake
Mus musculus [28] = experiment: Ex-vivo inhibition of PrCP in heat inactivated 100% plasma of C57 mouse assessed as target engagement calculated as [cmpd]plasma/([cmpd]plasma + Ki (heat inactivated plasma))x100 at 3 mg/kg, po after 20 hrs by FRET analysis; type: functional; design: scale not given: the % may be the effect or the level left
Mus musculus [29] = experiment: Ex-vivo inhibition of PrCP in heat inactivated 100% plasma of C57 mouse assessed as target engagement at 3 mg/kg, po after 20 hrs by FRET analysis; type: functional; design: scale not given: the % may be the effect or the level left
Mus musculus [30] = experiment: Ex-vivo inhibition of PrCP in heat inactivated 100% plasma of C57 mouse assessed as target engagement at 30 mg/kg, po after 20 hrs by FRET analysis; type: functional; design: scale not given: the % may be the effect or the level left
[31] = Half life in mouse at 1 mg/kg, iv and 30 mg/kg, po; type: ADME, organism-based; conditions: in vivo

| SMILES | remaining at 0.5 h [1] [%] | fraction unbound [2] | pIC50 [3] | remaining at 0.5 h [4] [%] | pKi (Mus musculus [5]) | pKi (Mus musculus [6]) | fraction unbound [7] | pKi (Mus musculus [8]) | Activity (Mus musculus [9]) [%] | Kp at 20 h [10] | Activity (Mus musculus [12]) | concentration at 20 h [13] [nM] | Papp at 1 µM [14] [×10⁻⁶ cm/s] | concentration at 20 h [15] [nM] | also measured |
| --- | --- | --- | --- | --- | --- | --- | --- | --- | --- | --- | --- | --- | --- | --- | --- |
| Cc1cc(C2CCN(C(=O)[C@@H]3C[C@@](C)(N)C[C@H]3c3ccc(F)cc3F)CC2)n(-c2cc(Cl)ccc2Cl)n1 | 78 | 0.071 | 9.05 | 39 | 9.00 | 8.68 | 0.02 | 8.28 |  |  |  |  |  |  |  |
| Cc1cc(C2CCN(C(=O)[C@@H]3C[C@](C)(N)C[C@H]3c3ccc(F)cc3F)CC2)n(-c2ccc(F)c(Cl)c2)n1 |  | 0.069 |  |  | 7.96 | 7.61 | 0.043 | 7.18 |  |  |  |  |  |  |  |
| CN(C)[C@]1(C)C[C@H](C(=O)N2CCC(c3ccnn3-c3ccc(F)c(Cl)c3)CC2)[C@@H](c2ccc(F)cc2F)C1 | 23 | 0.144 |  | 1 |  |  | 0.091 |  | 99.6 | 0.09 | >=100% | 305 | 23.1 | 26 | Activity (Mus musculus [11]): Non-toxic; Activity (Mus musculus [16]): 38% |
| Cc1nc(C2CCN(C(=O)[C@@H]3CN(C(C)(C)C)C[C@H]3c3ccc(F)cc3F)CC2)n(-c2ccc(Cl)c(C)c2)n1 |  |  |  |  |  |  |  |  |  |  |  |  |  |  | AUC/dose (Mus musculus [17]): 0.05 µM·kg·h/mg; bioavailability [18]: 20%; clearance [19]: 128 mL/min/kg; Vd [20]: 17 L/kg |
| C[C@@]1(N)C[C@H](C(=O)N2CCC(c3ccnn3-c3ccc(F)c(Cl)c3)CC2)[C@@H](c2ccc(F)cc2F)C1 | 73 | 0.065 | 9.00 | 20 | 9.15 | 8.82 | 0.035 | 8.41 | 100 | 0.28 | 72% | 185 | 21.7 | 51 | Activity (Mus musculus [21]): 100%; concentration at 20 h [22]: 6 nM; Kp at 20 h [23]: 0.07; Kp at 20 h [24]: 0.18; concentration at 20 h [25]: 2130 nM; Activity (Mus musculus [11]): Non-toxic; concentration at 20 h [26]: 23 nM; concentration at 20 h [27]: 142 nM; Activity (Mus musculus [28]): 84.2%; Activity (Mus musculus [29]): 31%; Activity (Mus musculus [30]): >=100%; Activity (Mus musculus [16]): 38% |
| CN(C)[C@@]1(C)C[C@H](C(=O)N2CCC(c3ccnn3-c3ccc(F)c(Cl)c3)CC2)[C@@H](c2ccc(F)cc2F)C1 | 34 | 0.104 |  | 2 |  |  | 0.132 |  |  |  |  |  |  |  |  |
| Cc1cc(C2CCN(C(=O)[C@@H]3C[C@@](C)(N)C[C@H]3c3ccc(F)cc3F)CC2)n(-c2ccc(F)c(Cl)c2)n1 | 90 | 0.043 |  | 60 | 8.80 | 8.43 | 0.036 | 8.00 | 96.1 | 0.18 | 62.8% | 246 | 24 | 39 | Activity (Mus musculus [21]): 99.6%; Kp at 20 h [23]: 0.17; concentration at 20 h [25]: 2820 nM; concentration at 20 h [27]: 363 nM; AUC/dose (Mus musculus [17]): 1 µM·kg·h/mg; bioavailability [18]: 57%; clearance [19]: 18 mL/min/kg; Vd [20]: 6.2 L/kg; Activity (Mus musculus [30]): >=100%; half-life [31]: 4.9 h |
| Cc1nc(C2CCN(C(=O)[C@@H]3C[C@@](C)(N(C)C)C[C@H]3c3ccc(F)cc3F)CC2)n(-c2cc(Cl)ccc2Cl)n1 | 6 | 0.33 | 8.70 | 18 | 9.00 | 9.00 | 0.14 | 9.00 |  |  |  |  |  |  |  |
| Cc1nc(C2CCN(C(=O)[C@@H]3C[C@@](C)(N)C[C@H]3c3ccc(F)cc3F)CC2)n(-c2ccc(Cl)c(C)c2)n1 | 72 | 0.076 | 7.07 | 78 | 7.96 | 7.57 | 0.102 | 7.13 |  |  |  |  |  |  |  |
| C[C@]1(N)C[C@H](C(=O)N2CCC(c3ccnn3-c3ccc(F)c(Cl)c3)CC2)[C@@H](c2ccc(F)cc2F)C1 | 89 | 0.1 | 8.59 | 33 |  |  | 0.061 |  |  |  |  |  |  |  |  |
